According to PubChem BioAssay AID1224920 (Broad Institute, 2016):
Values joined by “and” are separate entries in the source; they are usually repeats but may differ in a detail not shown here. Equal values may be shown once. Active and inactive are the calls of the source.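 How the source made its calls: active means IC50 no higher than ten times the top tested dose; inconclusive means flat fit with 30 to 70% inhibition, or poor fit; inactive means IC50 above ten times the top dose.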

Test system: Clostridium difficile clinical isolate growth, OD600, 24 h
Experiment: growth modulation of Clostridium difficile isolate – OD600, 9-point, retest, dose response (AID 1224920);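 further: inhibitors lower culture turbidity so OD600 falls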

Row | SMILES | IC50
1 | O=C(C[C@H]1CC[C@@H]2[C@H](COC[C@H](O)CN2C(=O)Nc2ccc(Cl)c(Cl)c2)O1)NC1CCC1 | 8.25 µM
2 | COc1ccc(C#Cc2ccc([C@@H]3[C@@H](CO)N4CCCCN(Cc5ccccc5F)C[C@H]34)cc2)cc1 | 7.31 µM
3 | Cc1ccc(-c2ccc([C@H]3[C@@H](CO)N4CCCCN(C(=O)Nc5ccccc5)C[C@H]34)cc2)cc1 | 37.7 µM
4 | OC[C@H]1[C@@H](c2ccc(-c3ccc(F)cc3)cc2)[C@@H]2CN(CCC(F)(F)F)CCCCN12 | 72.8 µM
5 | O=C(Nc1ccc(F)cc1)N1CCCCN2[C@H](CO)[C@H](c3ccc(-c4cccc(F)c4)cc3)[C@H]2C1 | 70.3 µM
6 | COc1cccc(-c2ccc(C3[C@@H]4CN(Cc5ccccn5)C[C@H]3N4)cc2)c1 (stereo partly specified) | 91.5 µM
7 | Cc1ccc(-c2ccc([C@@H]3[C@H](CO)N4CCCCN(S(=O)(=O)c5cccc(C)c5)C[C@@H]34)cc2)cc1 | 18.2 µM
8 | Cc1cccc(-c2ccc([C@@H]3[C@@H]4CN(C(=O)CN(C)C)C[C@H]3N4)cc2)c1 | 61.5 µM
9 | Cc1ccc(-c2ccc([C@@H]3[C@@H](CO)N4CCCCN(C(=O)c5ccc(F)cc5)C[C@H]34)cc2)cc1 | 34.4 µM
10 | Cc1ccc(-c2ccc(C3[C@@H]4CN(Cc5cccc(F)c5)C[C@H]3N4)cc2)cc1 (stereo partly specified) | 2.8 µM and 12.6 µM
11 | COc1cccc(-c2ccc(C3[C@@H]4CN(Cc5cccc(F)c5)C[C@H]3N4)cc2)c1 (stereo partly specified) | 9.52 µM and 7.62 µM
12 | O=C(Nc1cccc(F)c1)N1CCCCN2[C@H](CO)[C@H](c3ccc(-c4ccccc4F)cc3)[C@H]2C1 | 24.5 µM
13 | O=C(C1CCCCC1)N1CC2(C1)[C@H](c1ccccc1)[C@H](CO)N2Cc1ccc(Cl)cc1 | 33.7 µM
14 | Cc1ccc(-c2ccc(C3[C@H]4CNC[C@@H]3N4S(=O)(=O)c3ccccc3C)cc2)cc1 (stereo partly specified) | 27.6 µM
15 | COc1ccc(-c2ccc(C3[C@H]4CNC[C@@H]3N4Cc3cc(OC)cc(OC)c3)cc2)cc1 (stereo partly specified) | 11.1 µM
16 | O=C(c1cnccn1)N1CC(=O)N2[C@H](C1)[C@@H](c1ccc(C#CCc3ccccc3)cc1)[C@@H]2CO | > 240 µM (inactive)
17 | COc1ccccc1C#Cc1ccc2c(c1)[C@H]1[C@H](CCN1C(=O)c1ccncc1)[C@H](CO)N2 | 63.5 µM
18 | COc1ccc(C#Cc2ccc([C@H]3[C@H](CO)N4CCCCN(C(=O)Nc5ccc(F)cc5)C[C@@H]34)cc2)cc1 | 5.67 µM
19 | COc1cccc(CN2C[C@@H]3N[C@H](C2)C3c2ccc(-c3ccccc3OC)cc2)c1 (stereo partly specified) | 34.1 µM
20 | Cc1ccccc1-c1ccc([C@@H]2[C@H](CO)N3CCCCN(C(=O)Nc4ccc(F)cc4)C[C@@H]23)cc1 | 13.9 µM
21 | O=C(NC1CCCCC1)N1C[C@@H]2N[C@H](C1)C2c1ccc(-c2ccc(F)cc2)cc1 (stereo partly specified) | 59.7 µM

Row | SMILES | IC50
22 | O=C(Nc1cccc(F)c1)N1C[C@@H]2N[C@H](C1)C2c1ccc(-c2ccc(F)cc2)cc1 (stereo partly specified) | 51.8 µM
23 | COc1ccccc1-c1ccc(C2[C@@H]3CN(S(=O)(=O)c4ccccc4C)C[C@H]2N3)cc1 (stereo partly specified) | 28.1 µM
24 | OC[C@H]1Nc2ccc(-c3ccc(F)cc3)cc2[C@@H]2[C@H]1CCN2Cc1ccc(F)cc1 | 26.8 µM
25 | COc1cc(CN2[C@@H]3CNC[C@H]2C3c2ccc(-c3ccccc3C)cc2)cc(OC)c1 (stereo partly specified) | 18.8 µM
26 | COc1cc(CN2C[C@@H]3N[C@H](C2)C3c2ccc(-c3cccc(OC)c3)cc2)cc(OC)c1 (stereo partly specified) | 13 µM and 14 µM
27 | COc1cccc(S(=O)(=O)N2C[C@@H]3N[C@H](C2)C3c2ccc(-c3ccccc3F)cc2)c1 (stereo partly specified) | 26 µM
28 | C(=C\c1ccc(C2[C@@H]3CN(Cc4cocn4)C[C@H]2N3)cc1)/c1ccccc1 (stereo partly specified) | 11 µM
29 | O=C(C1CCCCC1)N1C[C@@H]2N[C@H](C1)C2c1ccc(-c2ccccc2F)cc1 (stereo partly specified) | 55.9 µM
30 | C[C@@H]1CN([C@@H](C)CO)C(=O)c2cccc(NC(=O)Nc3ccc(C(F)(F)F)cc3)c2O[C@H]1CN(C)C(=O)Nc1ccc(C(F)(F)F)cc1 | 22.2 µM
31 | CCNC(=O)C[C@@H]1CC[C@@H]2[C@H](COC[C@@H](O)CN2C(=O)Nc2ccc(C(F)(F)F)cc2)O1 | 31.6 µM
32 | N#Cc1ccc(-c2ccc([C@@H]3[C@H]4CNC[C@@H]3N4Cc3cc(F)ccc3F)cc2)cc1 | 58.8 µM
33 | O=C(C1CCC1)N1C[C@@H]2N[C@H](C1)C2c1ccc(/C=C/c2ccccc2)cc1 (stereo partly specified) | 74.4 µM
34 | O=C(Nc1cccc(F)c1)N1CCCCN2[C@@H](CO)[C@@H](c3ccc(-c4ccccc4F)cc3)[C@@H]2C1 | 13.1 µM
35 | COc1ccccc1CN1CC[C@@H]2[C@H]1c1cc(C#Cc3ccccc3)ccc1N[C@@H]2CO | 26.2 µM
36 | COc1ccc(-c2ccc(C3[C@H]4CNC[C@@H]3N4Cc3ccc4c(c3)OCO4)cc2)cc1 (stereo partly specified) | 53.1 µM
37 | Cc1ccccc1-c1ccc(C2[C@@H]3CN(C(=O)c4ccc(F)cc4)C[C@H]2N3)cc1 (stereo partly specified) | 64.6 µM
38 | C(=C\c1ccc(C2[C@H]3CNC[C@@H]2N3Cc2nccs2)cc1)/c1ccccc1 (stereo partly specified) | 60.4 µM
39 | Fc1ccc(-c2ccc(C3[C@@H]4CN(Cc5cccc(F)c5)C[C@H]3N4)cc2)cc1 (stereo partly specified) | 5.47 µM and 20.4 µM
40 | O=C(C[C@H]1CC[C@H]2[C@@H](COC[C@H](O)CN2C(=O)Nc2cc(Cl)cc(Cl)c2)O1)N1CCOCC1 | 15 µM
41 | O=C(NC[C@H]1N[C@H](CO)[C@@H]1c1ccc(C2=CCCCC2)cc1)c1ccc(F)cc1 | 29.1 µM
42 | Cc1cccc(S(=O)(=O)N2CCCCN3[C@H](CO)[C@H](c4ccc(C#CC5CC5)cc4)[C@H]3C2)c1 | 27.9 µM

Row | SMILES | IC50
43 | Fc1ccc(CN2[C@@H]3CNC[C@H]2C3c2ccc(-c3ccccc3)cc2)cc1 (stereo partly specified) | 28.6 µM
44 | COc1ccc(C#Cc2ccc([C@@H]3[C@H]4CN(Cc5ccccc5F)CCCCN4[C@H]3CO)cc2)cc1 | 13.7 µM
45 | O=C(Nc1ccc(F)cc1)N1C[C@@H]2N[C@H](C1)C2c1ccc(-c2ccccc2F)cc1 (stereo partly specified) | 36.7 µM and 57.5 µM
46 | OC[C@H]1[C@@H](c2ccc(C#CC3CCCC3)cc2)[C@H]2CN(CCC(F)(F)F)CCCCN21 | 9.49 µM
47 | O=C(NC[C@@H]1N[C@@H](CO)[C@H]1c1ccc(C2=CCCCC2)cc1)c1ccccc1 | 65.8 µM
48 | Cc1ccccc1-c1ccc(C2[C@@H]3CN(Cc4ccc5c(c4)OCO5)C[C@H]2N3)cc1 (stereo partly specified) | 5.63 µM and 15.6 µM
49 | N#C[C@@H]1[C@@H](c2ccc(C#Cc3cccnc3)cc2)[C@@H](CO)N1C(=O)NC1CCCC1 | > 240 µM (inactive)
50 | O=C(Nc1ccc(C(F)(F)F)cc1)N1C[C@@H]2N[C@H](C1)C2c1ccc(-c2cccc(F)c2)cc1 (stereo partly specified) | 2.63 µM and 2.5 µM
51 | COc1ccccc1C#Cc1ccc2c(c1)[C@@H]1[C@@H](CCN1C(=O)c1ccncc1)[C@@H](CO)N2 | > 120 µM (inactive)
52 | N#Cc1ccc(-c2ccc(C3[C@@H]4CN(C(=O)Nc5ccc(C(F)(F)F)cc5)C[C@H]3N4)cc2)cc1 (stereo partly specified) | 29.7 µM
53 | O=C(Nc1cccc(F)c1)N1C[C@@H]2N[C@H](C1)C2c1ccc(-c2ccccc2F)cc1 (stereo partly specified) | 27 µM and 65.3 µM
54 | COc1cccc(S(=O)(=O)N2C[C@@H]3N[C@H](C2)C3c2ccc(/C=C/c3ccccc3)cc2)c1 (stereo partly specified) | 12.7 µM
55 | O=C(Nc1ccc(F)cc1)N1[C@@H]2CNC[C@H]1C2c1ccc(/C=C/c2ccccc2)cc1 (stereo partly specified) | 13.8 µM
56 | COc1ccc(-c2ccc(C3[C@H]4CNC[C@@H]3N4C(=O)Nc3ccc(C(F)(F)F)cc3)cc2)cc1 (stereo partly specified) | 65.7 µM and 10.6 µM
57 | O=C(C[C@@H]1CC[C@@H]2[C@H](COC[C@@H](O)CN2C(=O)Nc2ccc(C(F)(F)F)cc2)O1)NC1Cc2ccccc2C1 | 6.53 µM
58 | O=C(C1CCCC1)N1C[C@@H]2N[C@H](C1)C2c1ccc(/C=C/c2ccccc2)cc1 (stereo partly specified) | 30.1 µM
59 | CC(C)CC#Cc1ccc([C@@H]2[C@H](CO)N3CCCCN(C(=O)Nc4ccccc4)C[C@@H]23)cc1 | 13.1 µM
60 | COc1ccccc1S(=O)(=O)N1[C@@H]2CNC[C@H]1C2c1ccc(/C=C/c2ccccc2)cc1 (stereo partly specified) | 63.2 µM
61 | COc1ccc(S(=O)(=O)N2[C@@H]3CNC[C@H]2C3c2ccc(-c3cccc(C)c3)cc2)cc1 (stereo partly specified) | 83 µM
